Assay results: patent publication US8470862B2, “Treatment or prevention of hypotension and shock” (Recro Pharma, Inc., priority 1999, dated 2013)

Tested on: anaesthetized rats
Assay: Blood pressure and heart rate after slow intravenous administration in anaesthetized rats
Format: in vivo
Settings: for HR (beats/min) / MAP (mmHg): mean ± SEM, n=6; for maximal change in HR / maximal change in MAP: percent change from baseline
Method: The effects of 3-(1H-imidazol-4-ylmethyl)-indan-5-ol on blood pressure and heart rate after slow intravenous administration were studied in anaesthetized rats. Dexmedetomidine (Orion Corporation Orion Pharma, Finland), a specific α2-adrenoceptor agonist was studied as a reference compound.
Male Spraque-Dawley rats (B&K, Sweden), weighing 290-400 g, were anaesthetized with sodium pentobarbital (Mebunat® 60 mg/ml) 75 mg/kg i.p. The left femoral vein was cannulated (PE-50) for slow drug injections. The left femoral artery was cannulated (PE-60) and the mean arterial blood pressure (MAP) and heart rate (HR) were recorded continuously via a Micro MP-15 transducer connected to a Grass Model 7D Polygraph. Arterial pressure was sampled at a rate 150 samples/second and recorded on a Pinus PC computer using the software program AcqKnowledge version 3.5.3 and a MP100A data acquisition unit for analog/digital conversion (BIOPAC Systems, Inc.). Pulse waves of the blood pressure were used for displaying heart rate continuously. The body temperature (rectal) was kept constant at 37±0.5° C. by warming with a lamp above the animal's chest. Only rats with MAP of 73 mmHg or higher were used for the tests. After a stabilizing period of 10-20 min, 3-(1H-imidazol-4-ylmethyl)-indan-5-ol (1 and 3 μg/kg, as hydrochloride) or dexmedetomidine (3 and 10 μg/kg, as hydrochlorides) dose was given as slow intravenous injection (during 5 min) by an infusion pump (Perfusor® ED 2, B. Braun). The total injection volume was adjusted to 1 ml in each experimental group.

[1] = dose 3 μg/kg slow i.v. (during 5 min), time 0 min
[2] = dose 3 μg/kg slow i.v. (during 5 min), time 3 min
[3] = dose 3 μg/kg slow i.v. (during 5 min), time 5 min
[4] = dose 3 μg/kg slow i.v. (during 5 min), time 10 min
[5] = dose 3 μg/kg slow i.v. (during 5 min), time 20 min
[6] = dose 3 μg/kg slow i.v. (during 5 min), time 30 min
[7] = dose 10 μg/kg slow i.v. (during 5 min), time 0 min
[8] = dose 10 μg/kg slow i.v. (during 5 min), time 2 min
[9] = dose 10 μg/kg slow i.v. (during 5 min), time 5 min
[10] = dose 10 μg/kg slow i.v. (during 5 min), time 10 min
[11] = dose 10 μg/kg slow i.v. (during 5 min), time 20 min
[12] = dose 10 μg/kg slow i.v. (during 5 min), time 30 min
[13] = slow intravenous administration of 3 and 10 μg/kg
[14] = dose 1 μg/kg slow i.v. (during 5 min), time 0 min
[15] = dose 1 μg/kg slow i.v. (during 5 min), time 3 min
[16] = dose 1 μg/kg slow i.v. (during 5 min), time 5 min
[17] = dose 1 μg/kg slow i.v. (during 5 min), time 10 min
[18] = dose 1 μg/kg slow i.v. (during 5 min), time 20 min
[19] = dose 1 μg/kg slow i.v. (during 5 min), time 30 min
[20] = slow (during 5 minutes) i.v. dosing of 1 and 3 μg/kg

Cc1cccc([C@H](C)c2cnc[nH]2)c1C [Dexmedetomidine, dexmedetomidine]
HR (beats/min) [1]: 348 ± 12 beats/min | MAP (mmHg) [1]: 89 ± 5 mmHg | HR (beats/min) [2]: 310 ± 6 beats/min | MAP (mmHg) [2]: 86 ± 5 mmHg | HR (beats/min) [3]: 310 ± 5 beats/min | MAP (mmHg) [3]: 79 ± 7 mmHg | HR (beats/min) [4]: 308 ± 4 beats/min | MAP (mmHg) [4]: 61 ± 4 mmHg | HR (beats/min) [5]: 309 ± 5 beats/min | MAP (mmHg) [5]: 65 ± 2 mmHg | HR (beats/min) [6]: 309 ± 5 beats/min | MAP (mmHg) [6]: 67 ± 2 mmHg | HR (beats/min) [7]: 383 ± 11 beats/min | MAP (mmHg) [7]: 92 ± 2 mmHg | HR (beats/min) [8]: 308 ± 5 beats/min | MAP (mmHg) [8]: 94 ± 4 mmHg | HR (beats/min) [9]: 309 ± 3 beats/min | MAP (mmHg) [9]: 75 ± 6 mmHg | HR (beats/min) [10]: 303 ± 3 beats/min | MAP (mmHg) [10]: 59 ± 3 mmHg | HR (beats/min) [11]: 296 ± 7 beats/min | MAP (mmHg) [11]: 68 ± 2 mmHg | HR (beats/min) [12]: 297 ± 6 beats/min | MAP (mmHg) [12]: 73 ± 2 mmHg | maximal change in HR [13]: −21% | maximal change in MAP [13]: −37%

Oc1ccc2c(c1)C(Cc1c[nH]cn1)CC2 (stereo not shown) [MPV-2426 Al, 3-(1H-imidazol-4-ylmethyl)-indan-5-ol]
HR (beats/min) [14]: 373 ± 8 beats/min | MAP (mmHg) [14]: 97 ± 4 mmHg | HR (beats/min) [15]: 324 ± 9 beats/min | MAP (mmHg) [15]: 114 ± 3 mmHg | HR (beats/min) [16]: 321 ± 9 beats/min | MAP (mmHg) [16]: 112 ± 3 mmHg | HR (beats/min) [17]: 327 ± 7 beats/min | MAP (mmHg) [17]: 83 ± 4 mmHg | HR (beats/min) [18]: 319 ± 9 beats/min | MAP (mmHg) [18]: 84 ± 4 mmHg | HR (beats/min) [19]: 317 ± 9 beats/min | MAP (mmHg) [19]: 80 ± 3 mmHg | HR (beats/min) [1]: 366 ± 11 beats/min | MAP (mmHg) [1]: 94 ± 5 mmHg | HR (beats/min) [2]: 309 ± 7 beats/min | MAP (mmHg) [2]: 123 ± 9 mmHg | HR (beats/min) [3]: 311 ± 4 beats/min | MAP (mmHg) [3]: 117 ± 12 mmHg | HR (beats/min) [4]: 321 ± 4 beats/min | MAP (mmHg) [4]: 88 ± 4 mmHg | HR (beats/min) [5]: 321 ± 6 beats/min | MAP (mmHg) [5]: 83 ± 5 mmHg | HR (beats/min) [6]: 305 ± 6 beats/min | MAP (mmHg) [6]: 77 ± 3 mmHg | maximal change in HR [20]: −19% | maximal change in MAP [20]: +31%
